Reference: US9580463B2 (BRISTOL-MYERS SQUIBB COMPANY, priority 2013, dated 2017)
pEC50: −log10 of the molar value. Read-outs that look alike come from different tables or passages of the source.

Experiments:
[1] = tested on: HCV genotype 1a (H77 strain) replicon in HUH-7 cells; assay: HCV replicon luciferase reporter assay, genotype 1a; type: cell-based; conditions: Hepatitis C virus, 72 h, genotype 1a replicon, 3 days incubation
How it was run: (§1)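 Twenty-point, threefold compound titrations (0.5% DMSO) were incubated 3 days at 37 °C with 3.0×10^3 HUH-7 cells/well in 4% FCS. The cells stably carried luciferase replicons: genotype 1b Con1 (S1179I) or 1a H77 (NS3 P1496L, NS5A S2204I). Renilla signal was read after 2 h with 7.5 μM EnduRen, and EC50 was taken from a four-parameter logistic fit. Cytotoxicity (CC50) was measured by Cell Titer-Blue, 8 h.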

[2] = tested on: HCV genotype 1b (Con1) replicon in HUH-7 cells; assay: HCV replicon luciferase reporter assay, genotype 1b; type: cell-based; conditions: Hepatitis C virus, 72 h, genotype 1b replicon, 3 days incubation
How it was run: as §1

SMILES | pEC50 ([1]; read-out: LE_1a (EC50, range)) | pEC50 ([2]; read-out: LE_1b (EC50, range)) | pEC50 ([1]; read-out: LE_1a (EC50)) | pEC50 ([2]; read-out: LE_1b (EC50))
COC[C@@H]1C[C@@H](C)CC/C=C\[C@@H]2C[C@@]2(C(=O)NS(=O)(=O)C2(C)CC2)NC(=O)[C@@H]2C[C@@H](Oc3nc4cc(OC)ccc4nc3C(F)(F)F)CN2C(=O)[C@H]1NC(=O)OC(C)(C)C [Compound 1027, tert-butyl ((2R,6S,7R,9S,13aS,14aR,16aS,Z)-2-((7-methoxy-3-(trifluoromethyl)quinoxalin-2-yl)oxy)-7-(methoxymethyl)-9-methyl-14a-(((1-methylcyclopropyl)sulfonyl)carbamoyl)-5,16-dioxo-1,2,3,5,6,7,8,9,10,11,13a,14,14a,15,16,16a-hexadecahydrocyclopropa[e]pyrrolo[1,2-a][1,4]diazacyclopentadecin-6-yl)carbamate] | 7.46 to 8.30 | 8.30 to 9.00 | – | –
COC[C@@H]1C[C@H](C)CC/C=C\[C@@H]2C[C@@]2(C(=O)NS(=O)(=O)C2(C)CC2)NC(=O)[C@@H]2C[C@@H](Oc3nc4cc(OC)ccc4nc3C(F)(F)F)CN2C(=O)[C@H]1NC(=O)OC(C)(C)C [Compound 1028, tert-butyl ((2R,6S,7R,9R,13aS,14aR,16aS,Z)-2-((7-methoxy-3-(trifluoromethyl)quinoxalin-2-yl)oxy)-7-(methoxymethyl)-9-methyl-14a-(((1-methylcyclopropyl)sulfonyl)carbamoyl)-5,16-dioxo-1,2,3,5,6,7,8,9,10,11,13a,14,14a,15,16,16a-hexadecahydrocyclopropa[e]pyrrolo[1,2-a][1,4]diazacyclopentadecin-6-yl)carbamate] | 9.00 to 9.29 | 9.30 to 10.00 | – | –
COC[C@@H]1C[C@@H](C)CC/C=C\[C@@H]2C[C@@]2(C(=O)NS(=O)(=O)C2(C)CC2)NC(=O)[C@@H]2C[C@@H](Oc3nc4cc(OC)ccc4nc3C(C)C)CN2C(=O)[C@H]1NC(=O)OC(C)(C)C [Compound 1029, tert-butyl ((2R,6S,7R,9S,13aS,14aR,16aS,Z)-2-((3-isopropyl-7-methoxyquinoxalin-2-yl)oxy)-7-(methoxymethyl)-9-methyl-14a-(((1-methylcyclopropyl)sulfonyl)carbamoyl)-5,16-dioxo-1,2,3,5,6,7,8,9,10,11,13a,14,14a,15,16,16a-hexadecahydrocyclopropa[e]pyrrolo[1,2-a][1,4]diazacyclopentadecin-6-yl)carbamate] | 8.30 to 9.00 | 9.00 to 9.29 | 8.75 | 9.20
COC[C@@H]1C[C@H](C)CC/C=C\[C@@H]2C[C@@]2(C(=O)NS(=O)(=O)C2(C)CC2)NC(=O)[C@@H]2C[C@@H](Oc3nc4cc(OC)ccc4nc3C(C)C)CN2C(=O)[C@H]1NC(=O)OC(C)(C)C [Compound 1030, tert-butyl ((2R,6S,7R,9R,13aS,14aR,16aS,Z)-2-((3-isopropyl-7-methoxyquinoxalin-2-yl)oxy)-7-(methoxymethyl)-9-methyl-14a-(((1-methylcyclopropyl)sulfonyl)carbamoyl)-5,16-dioxo-1,2,3,5,6,7,8,9,10,11,13a,14,14a,15,16,16a-hexadecahydrocyclopropa[e]pyrrolo[1,2-a][1,4]diazacyclopentadecin-6-yl)carbamate] | 6.21 to 7.46 | 7.46 to 8.30 | – | –
COC[C@@H]1C[C@@H](C)CC/C=C\[C@@H]2C[C@@]2(C(=O)NS(=O)(=O)C2(C)CC2)NC(=O)[C@@H]2C[C@@H](Oc3nc4cc(OC)ccc4nc3C(F)(F)F)CN2C(=O)[C@H]1NC(=O)OC(C)(C)C(F)(F)F [Compound 1031, 1,1,1-trifluoro-2-methylpropan-2-yl ((2R,6S,7R,9S,13aS,14aR,16aS,Z)-2-((7-methoxy-3-(trifluoromethyl)quinoxalin-2-yl)oxy)-7-(methoxymethyl)-9-methyl-14a-(((1-methylcyclopropyl)sulfonyl)carbamoyl)-5,16-dioxo-1,2,3,5,6,7,8,9,10,11,13a,14,14a,15,16,16a-hexadecahydrocyclopropa[e]pyrrolo[1,2-a][1,4]diazacyclopentadecin-6-yl)carbamate] | 7.46 to 8.30 | 8.30 to 9.00 | – | –
COC[C@@H]1C[C@H](C)CC/C=C\[C@@H]2C[C@@]2(C(=O)NS(=O)(=O)C2(C)CC2)NC(=O)[C@@H]2C[C@@H](Oc3nc4cc(OC)ccc4nc3C(F)(F)F)CN2C(=O)[C@H]1NC(=O)OC(C)(C)C(F)(F)F [Compound 1032, 1,1,1-trifluoro-2-methylpropan-2-yl ((2R,6S,7R,9R,13aS,14aR,16aS,Z)-2-((7-methoxy-3-(trifluoromethyl)quinoxalin-2-yl)oxy)-7-(methoxymethyl)-9-methyl-14a-(((1-methylcyclopropyl)sulfonyl)carbamoyl)-5,16-dioxo-1,2,3,5,6,7,8,9,10,11,13a,14,14a,15,16,16a-hexadecahydrocyclopropa[e]pyrrolo[1,2-a][1,4]diazacyclopentadecin-6-yl)carbamate] | 9.00 to 9.29 | 9.30 to 10.00 | – | –
COC[C@@H]1C[C@@H](C)CC/C=C\[C@@H]2C[C@@]2(C(=O)NS(=O)(=O)C2(C)CC2)NC(=O)[C@@H]2C[C@@H](Oc3nc4cc(OC)ccc4nc3C(C)C)CN2C(=O)[C@H]1NC(=O)OC(C)(C)C(F)(F)F [Compound 1033, 1,1,1-trifluoro-2-methylpropan-2-yl ((2R,6S,7R,9S,13aS,14aR,16aS,Z)-2-((3-isopropyl-7-methoxyquinoxalin-2-yl)oxy)-7-(methoxymethyl)-9-methyl-14a-(((1-methylcyclopropyl)sulfonyl)carbamoyl)-5,16-dioxo-1,2,3,5,6,7,8,9,10,11,13a,14,14a,15,16,16a-hexadecahydrocyclopropa[e]pyrrolo[1,2-a][1,4]diazacyclopentadecin-6-yl)carbamate] | 7.46 to 8.30 | 8.30 to 9.00 | – | –
COC[C@@H]1C[C@H](C)CC/C=C\[C@@H]2C[C@@]2(C(=O)NS(=O)(=O)C2(C)CC2)NC(=O)[C@@H]2C[C@@H](Oc3nc4cc(OC)ccc4nc3C(C)C)CN2C(=O)[C@H]1NC(=O)OC(C)(C)C(F)(F)F [Compound 1034, 1,1,1-trifluoro-2-methylpropan-2-yl ((2R,6S,7R,9R,13aS,14aR,16aS,Z)-2-((3-isopropyl-7-methoxyquinoxalin-2-yl)oxy)-7-(methoxymethyl)-9-methyl-14a-(((1-methylcyclopropyl)sulfonyl)carbamoyl)-5,16-dioxo-1,2,3,5,6,7,8,9,10,11,13a,14,14a,15,16,16a-hexadecahydrocyclopropa[e]pyrrolo[1,2-a][1,4]diazacyclopentadecin-6-yl)carbamate] | 8.30 to 9.00 | 9.00 to 9.29 | – | –
COC[C@@H]1C[C@H](C)CC/C=C\[C@@H]2C[C@@]2(C(=O)NS(=O)(=O)C2(CF)CC2)NC(=O)[C@@H]2C[C@@H](Oc3nc4cc(OC)ccc4nc3C(F)(F)F)CN2C(=O)[C@H]1NC(=O)OC(C)(C)C [Compound 1035, tert-butyl ((2R,6S,7R,9R,13aS,14aR,16aS,Z)-14a-(((1-(fluoromethyl)cyclopropyl)sulfonyl)carbamoyl)-2-((7-methoxy-3-(trifluoromethyl)quinoxalin-2-yl)oxy)-7-(methoxymethyl)-9-methyl-5,16-dioxo-1,2,3,5,6,7,8,9,10,11,13a,14,14a,15,16,16a-hexadecahydrocyclopropa[e]pyrrolo[1,2-a][1,4]diazacyclopentadecin-6-yl)carbamate] | 8.30 to 9.00 | 8.30 to 9.00 | – | –
